According to patent publication US8350084B2, “Alpha-(N-sulfonamido)acetamide compound as an inhibitor of beta amyloid peptide production” (priority 2007, dated 2013):
Entries after “also recorded” stand apart in the source; their conditions may differ.

Legend:
[1] = target: T1, human pregnane-X receptor (Homo sapiens, UniProt O75469); assay: PXR transactivation assay; assay type: cell-based; settings: hPXR transactivation, transfected HepG2 cells
T1 construct: expressed in transfected cells; host or cells: HepG2 cells (ATCC), transient transfection with Lipofectamine 2000
T1 sequence (O75469 1-434): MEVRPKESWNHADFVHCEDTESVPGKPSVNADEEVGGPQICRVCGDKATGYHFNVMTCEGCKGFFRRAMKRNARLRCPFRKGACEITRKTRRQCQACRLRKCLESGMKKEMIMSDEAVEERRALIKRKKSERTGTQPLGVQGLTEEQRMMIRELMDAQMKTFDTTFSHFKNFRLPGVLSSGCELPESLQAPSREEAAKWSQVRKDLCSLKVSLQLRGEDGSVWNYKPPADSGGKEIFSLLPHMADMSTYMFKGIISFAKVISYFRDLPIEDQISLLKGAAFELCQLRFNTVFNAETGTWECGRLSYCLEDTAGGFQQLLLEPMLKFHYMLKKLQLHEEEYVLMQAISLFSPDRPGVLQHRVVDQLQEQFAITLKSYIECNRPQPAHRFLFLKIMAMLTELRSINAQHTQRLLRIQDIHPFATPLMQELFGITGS
Excerpt: Pregnane X receptor (PXR) is a nuclear hormone receptor principally responsible for the induction of cytochrome P450 (CYP) 3A4, which plays a major role in metabolizing many clinically prescribed drugs. It is well known that the induction of CYP3A4 can cause either drug-drug interaction by increasing the metabolic clearance of co-administered CYP3A4 substrates (Bertilsson, G. et al., Proc. Nat. Acad. Sci. USA (1998) 95: 12208-12213; Lehmann, J. M. et al., J. Clin. Invest. (1998) 102: 1016-1023) or can cause loss of drug exposure due to autoinduction. Characterizing the induction potential of discovery or development drug candidates has become an important screen throughout the pharmaceutical industry. A PXR transactivation assay is used to assess the induction potential of CYP3A4, and a cytotoxicity assay of HepG2 cells is used to monitor the assay interference due to cytotoxicity.
Cell culture medium used is DMEM. Lipofectamine 2000, PBS, trypsin-EDTA (0.25%), and penicillin-streptomycin were purchased from GIBCO/Invitrogen (Carlsbad, Calif.). […]
Cells in each flask are washed with PBS and 4 mL of Trypsin-EDTA (0.25%) is added and incubated for one minute at room temperature. […] Cells are then counted and diluted in media to 3.0×10^5 cells/mL. […] After fifteen minutes, plates are read on a Viewlux (Perkin-Elmer) plate reader. […]

[2] = test system: γ-secretase inhibitor binding sites in the brain; assay: Gamma-secretase site occupancy in rat brain; assay type: in vivo; settings: single dose 1 mg/kg, by 24 hours
Method: (§1) Female Harlan Sprague-Dawley rats (˜200-250 g) were dosed daily by oral gavage with a dosing vehicle of 99% PEG-400, 1% Tween-80 at 4 mL/kg in the morning. […] Plasma was obtained after centrifugation. […] CSF samples were centrifuged to remove cells or debris prior to dilution at 1:2 in 4% BSA and frozen for subsequent analysis.
Brain sections were cut coronally at a thickness of 20 μm on a cryostat and thaw-mounted onto Superfrost Plus slides. Sections were saved at the level of the rostral hippocampus, with 3 sections per slide at intervals of about 120 μm, and frozen at −20° C. until use. For occupancy studies, brain sections were warmed to room temperature, dried, incubated for 10 minutes in 50 mM HEPES buffer, pH 7.4, then transferred to the same buffer containing 1.5 nM [^3H]IN973 (Goldstein, M. E. et al., J. Pharmacol. Exp. Ther. (2007) 323:102-108) or [^3H] (R)-4-((N-(1-amino-4-methyl-1-oxopentan-2-yl)-4-chlorophenylsulfonamido)methyl)-N-(2-methoxyethyl)benzamide and incubated at room temperature for 10 minutes. To define nonspecific binding, adjacent sections were incubated in buffer containing [^3H]IN973 or [^3H] […] Optical densities (expressed as digital light units per square millimeter) over areas of interest were measured and expressed as a percent of vehicle control.

proximal duodenum = assay: Rat duodenum histopathology (GI toxicity); assay type: in vivo; settings: 100 mg/kg/day once daily for 4 days
Method: as §1
Following euthanasia by CO2 asphyxiation, approximately 3 cm long sections of the proximal duodenum were removed from the abdomen, rinsed with ice cold Phosphate buffered saline and placed into 10% buffered formalin prior to sectioning. Tissue sections of the duodenum were embedded in liquid paraffin, mounted onto blocks, and cut into triplicate sagittal (cross-luminal) ring sections and stained using the Periodic acid Schiff's base method prior to microscopic evaluation. All animals survived until scheduled necropsy was performed.

CYP3A4 mRNA = settings: human, 3 days, 20 μM
Method: Fa2N-4 cells and MFE Support Media F were provided by XenoTech, LLC (Lenexa, Kans.).
Fa2N-4 cells were supplied on 12-well, collagen-coated plates at a seeding density of 0.67×10^6 cells per well. Upon the receipt of the cells, the media were changed and the cells maintained overnight in a humidified, CO2-supplied incubator. After this adaptation period, the cells were examined under a light microscope and a determination was made as to whether the cells were morphologically normal and suitable for use. During the treatment period, the cells were visually inspected on a daily basis; cellular morphology, confluency, and signs of toxicity due to the test article were documented as necessary. […] Fa2N-4 cells were exposed to the test articles for a total of 3 days. The culture medium was replaced daily with fresh medium containing the test articles. After a total of ˜72 hours of exposure, medium was aspirated and the cells washed once with warm phosphate buffered saline solution before adding the cell lysis buffer (Qiagen, Valencia, Calif.).

mouse Notch1-ΔE = settings: Notch IC50 / Aβ40 IC50, 95% CI=163-232
Method: Since inhibition of Notch signaling causes undesired, mechanism-based side effects, a cellular assay for Notch1-ΔE signaling was used to counterscreen γ-secretase inhibitors.
Hela cells were maintained in DMEM (GibcoBRL) containing 10% FBS (GibcoBRL), Penicillin/Streptomycin (GibcoBRL) and 2 mM L-glutamine (GibcoBRL). Cells were transiently transfected using TransIT-HelaMONSTER (Mires) according to the manufacturer's directions. Hela cells (ATCC) were plated 16 hours before transfection at a density of 4×10^6 cells per T175 flask in Hela growth media (DMEM (high glucose with HEPES) with glutamine, penicillin, streptomycin and 10% fetal bovine serum). […] Cells were plated into 96 well black Clearview plates (Packard) at a volume of 200 μL/well (1×10^4 cells) and incubated at 37° C. for 1.5 hours to allow cells to adhere to the plates. Test compounds were initially diluted in a 96 well polypropylene plate in 100% DMSO. […] Diluted compound solutions (10 μL) were added to the cell plate yielding a final 0.1% DMSO concentration. Cell plates containing compound were incubated overnight at 37° C. […] The plate was incubated at room temperature for 10 minutes before black backing was attached to the bottom of the plate and the signal was read on a TopCount (Packard). […]

[3] = female, Sprague-Dawley, rat, in vivo
Method: Animals were euthanized 12 or 24 hours after the third dose or 5 hours after the fourth dose.

brain Aβ40 = assay: Rat brain Abeta40 assay (252-TSD ELISA); settings: for Terminal Brain Abeta 40 5 hr: 5 hr after fourth dose; for Terminal Brain Abeta 40 12 hr: 12 hr after third dose; for Terminal Brain Abeta 40 24 hr: 24 hr after third dose

NC(=O)[C@@H](CCC(F)(F)F)N(Cc1ccc(-c2ncon2)cc1F)S(=O)(=O)c1ccc(Cl)cc1 [(2R)-2-[[(4-chlorophenyl)sulfonyl][[2-fluoro-4-(1,2,4-oxadiazol-3-yl)phenyl]methyl]amino]-5,5,5-trifluoropentanamide]
EC20A (20% of the Rifampicin response at 10 μM) [1]: 6.9 µM | EC60A (60% of the Rifampicin response at 10 μM) [1]: greater than 16.7 μM | brain γ-secretase site occupancy [2]: gradually returned to baseline values | histological evaluation of duodenal tissue (proximal duodenum): ⅓ rats dosed with 100 mg/kg/day had mild lesions; also recorded: slight goblet cell metaplasia | induction as % of the induction response caused by rifampicin (CYP3A4 mRNA): 22% | Notch/APP selectivity (mouse Notch1-ΔE): 193 X | compound exposures after 3 doses relative to exposures after the initial dose [3]: ≤ 2 fold | Terminal Brain Abeta 40 5 hr (brain Aβ40; Study No. 1, 3 mg/kg/day): 39% Veh | Terminal Brain Abeta 40 12 hr (brain Aβ40; Study No. 1, 3 mg/kg/day): 35% Veh | Terminal Brain Abeta 40 24 hr (brain Aβ40; Study No. 1, 3 mg/kg/day): 92% Veh | Terminal Brain Abeta 40 5 hr (brain Aβ40; Study No. 1, 10 mg/kg/day): 12% Veh | Terminal Brain Abeta 40 12 hr (brain Aβ40; Study No. 1, 10 mg/kg/day): 9% Veh | Terminal Brain Abeta 40 24 hr (brain Aβ40; Study No. 1, 10 mg/kg/day): 28% Veh | Terminal Brain Abeta 40 5 hr (brain Aβ40; Study No. 1, 30 mg/kg/day): 8% Veh | Terminal Brain Abeta 40 12 hr (brain Aβ40; Study No. 1, 30 mg/kg/day): 9% Veh | Terminal Brain Abeta 40 24 hr (brain Aβ40; Study No. 1, 30 mg/kg/day): 13% Veh | Terminal Brain Abeta 40 5 hr (brain Aβ40; Study No. 2, 3 mg/kg/day): 16% Veh | Terminal Brain Abeta 40 12 hr (brain Aβ40; Study No. 2, 3 mg/kg/day): 34% Veh | Terminal Brain Abeta 40 24 hr (brain Aβ40; Study No. 2, 3 mg/kg/day): 94% Veh | Terminal Brain Abeta 40 5 hr (brain Aβ40; Study No. 2, 10 mg/kg/day): 6% Veh | Terminal Brain Abeta 40 12 hr (brain Aβ40; Study No. 2, 10 mg/kg/day): 4% Veh | Terminal Brain Abeta 40 24 hr (brain Aβ40; Study No. 2, 10 mg/kg/day): 23% Veh | Terminal Brain Abeta 40 5 hr (brain Aβ40; Study No. 2, 30 mg/kg/day): 6% Veh | Terminal Brain Abeta 40 12 hr (brain Aβ40; Study No. 2, 30 mg/kg/day): 4% Veh | Terminal Brain Abeta 40 24 hr (brain Aβ40; Study No. 2, 30 mg/kg/day): 15% Veh | Terminal Brain Abeta 40 5 hr (brain Aβ40; Study No. 2, 100 mg/kg/day): 3% Veh | Terminal Brain Abeta 40 12 hr (brain Aβ40; Study No. 2, 100 mg/kg/day): 3% Veh | Terminal Brain Abeta 40 24 hr (brain Aβ40; Study No. 2, 100 mg/kg/day): 7% Veh | Day 7 5 hr Brain Aβ40 (brain Aβ40; Study No. 3, 30 mg/kg/day): 13% Veh | Day 7 5 hr Brain Aβ40 (brain Aβ40; Study No. 3, 300 mg/kg/day): 13% Veh
